± gives the expanded uncertainty stated by the source.
Legend:
[1] = Crystal; DTA
[2] = Molar enthalpy of transition or fusion; details: Crystal; DSC

| Normal melting temperature [1] | Molar enthalpy of transition or fusion [2] | Compound |
| --- | --- | --- |
| 40.5 ± 0.5 °C | 20.7 ± 0.62 kJ/mol | COc1cccc(C=O)c1O [2-hydroxy-3-methoxybenzaldehyde] |
| 64.1 ± 0.5 °C | 25.4 ± 0.75 kJ/mol | CCOc1cccc(C=O)c1O [3-ethoxysalicylaldehyde] |
| 82.4 ± 0.5 °C | 24 ± 0.7 kJ/mol | COc1cc(C=O)ccc1O [vanillin] |

| Compound | Normal melting temperature [1] | Molar enthalpy of transition or fusion [2] |
| --- | --- | --- |
| CCOc1cc(C=O)ccc1O [3-ethoxy-4-hydroxybenzaldehyde] | 76.7 ± 0.5 °C | 25.3 ± 0.73 kJ/mol |

From the NIST ThermoML archive (doi:10.1016/j.fluid.2004.12.012)
